Values quoted from earlier work, collected in US20170007630A1, “COMPOSITION AND METHOD OF DELIVERY OF L-ARABINOSE AND SELECT COMPOUNDS” (priority 2011, published 2017).

Tests used:
[1] = biological target: T1, sucrase (Homo sapiens, UniProt P14410); settings: compared with sucrose
[2] = biological target: T1, sucrase
[3] = one study conducted in China

T1 sequence (P14410 whole entry): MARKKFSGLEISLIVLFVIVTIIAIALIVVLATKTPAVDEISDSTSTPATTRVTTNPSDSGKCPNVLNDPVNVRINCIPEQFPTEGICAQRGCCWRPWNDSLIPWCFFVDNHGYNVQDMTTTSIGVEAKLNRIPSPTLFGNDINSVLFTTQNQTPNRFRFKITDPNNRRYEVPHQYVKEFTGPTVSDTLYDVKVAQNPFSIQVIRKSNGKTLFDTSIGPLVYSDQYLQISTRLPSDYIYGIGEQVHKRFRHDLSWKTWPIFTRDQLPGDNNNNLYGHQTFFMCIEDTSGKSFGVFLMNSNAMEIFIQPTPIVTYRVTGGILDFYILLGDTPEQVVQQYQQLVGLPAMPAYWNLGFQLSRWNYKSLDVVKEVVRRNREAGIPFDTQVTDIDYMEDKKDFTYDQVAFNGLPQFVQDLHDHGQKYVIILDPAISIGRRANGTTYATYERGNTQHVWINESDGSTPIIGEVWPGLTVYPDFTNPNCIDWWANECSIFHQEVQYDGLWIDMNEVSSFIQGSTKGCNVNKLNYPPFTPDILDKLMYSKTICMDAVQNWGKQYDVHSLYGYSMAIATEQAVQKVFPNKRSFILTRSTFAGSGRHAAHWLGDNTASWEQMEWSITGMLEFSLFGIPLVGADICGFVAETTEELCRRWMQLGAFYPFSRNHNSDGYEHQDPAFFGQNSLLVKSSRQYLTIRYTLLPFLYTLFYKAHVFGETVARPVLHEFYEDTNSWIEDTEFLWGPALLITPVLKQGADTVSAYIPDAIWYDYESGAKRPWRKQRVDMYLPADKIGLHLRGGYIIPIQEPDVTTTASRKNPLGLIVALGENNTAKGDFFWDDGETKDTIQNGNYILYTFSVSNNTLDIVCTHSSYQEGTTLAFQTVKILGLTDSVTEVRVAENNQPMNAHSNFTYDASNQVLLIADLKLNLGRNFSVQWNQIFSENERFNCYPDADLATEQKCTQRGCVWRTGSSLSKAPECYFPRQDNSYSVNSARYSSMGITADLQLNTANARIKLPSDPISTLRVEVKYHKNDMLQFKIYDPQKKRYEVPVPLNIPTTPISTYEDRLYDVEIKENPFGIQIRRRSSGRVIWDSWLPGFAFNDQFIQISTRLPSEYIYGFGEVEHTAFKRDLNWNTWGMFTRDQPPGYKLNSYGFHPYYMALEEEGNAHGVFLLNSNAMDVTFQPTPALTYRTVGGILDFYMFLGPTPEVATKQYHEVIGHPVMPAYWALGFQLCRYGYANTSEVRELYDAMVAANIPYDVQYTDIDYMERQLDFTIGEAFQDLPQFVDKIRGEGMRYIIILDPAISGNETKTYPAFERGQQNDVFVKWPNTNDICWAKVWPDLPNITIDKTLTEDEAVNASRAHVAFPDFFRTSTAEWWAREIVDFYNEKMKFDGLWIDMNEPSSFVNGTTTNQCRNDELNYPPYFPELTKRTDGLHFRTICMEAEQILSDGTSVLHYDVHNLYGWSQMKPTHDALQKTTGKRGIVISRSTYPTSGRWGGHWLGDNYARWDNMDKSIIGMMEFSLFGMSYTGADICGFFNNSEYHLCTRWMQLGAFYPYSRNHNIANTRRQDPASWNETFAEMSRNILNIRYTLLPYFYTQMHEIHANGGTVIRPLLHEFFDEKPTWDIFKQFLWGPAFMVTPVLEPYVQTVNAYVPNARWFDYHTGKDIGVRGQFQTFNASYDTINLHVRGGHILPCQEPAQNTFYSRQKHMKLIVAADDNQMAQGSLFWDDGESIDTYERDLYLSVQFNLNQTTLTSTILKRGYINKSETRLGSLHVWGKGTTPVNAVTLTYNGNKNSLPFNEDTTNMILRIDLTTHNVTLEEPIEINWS

O=C[C@H](O)[C@@H](O)[C@@H](O)CO [L-arabinose]
affinity to sucrase relative to sucrose [1]: approximately 5 times | parts of sucrose inhibited from breakdown per one part of L-arabinose [2]: up to 20 parts | participants that experienced discomforts such as loose bowel or diarrhea [3]: about 40%
